Source: patent US20250352512A2, “C4-S[…] DERIVATIVES AND METHODS OF USING” (priority 2022, published 2025)
Where two headings read alike, the source gives them in different places.

Assays:
[1] = target: T1, AVPR1A (Homo sapiens, UniProt P37288); test: cell-based
[2] = target: T2, ADRA1A (Homo sapiens, UniProt P35348); test: cell-based
T2 sequence (P35348 1-466): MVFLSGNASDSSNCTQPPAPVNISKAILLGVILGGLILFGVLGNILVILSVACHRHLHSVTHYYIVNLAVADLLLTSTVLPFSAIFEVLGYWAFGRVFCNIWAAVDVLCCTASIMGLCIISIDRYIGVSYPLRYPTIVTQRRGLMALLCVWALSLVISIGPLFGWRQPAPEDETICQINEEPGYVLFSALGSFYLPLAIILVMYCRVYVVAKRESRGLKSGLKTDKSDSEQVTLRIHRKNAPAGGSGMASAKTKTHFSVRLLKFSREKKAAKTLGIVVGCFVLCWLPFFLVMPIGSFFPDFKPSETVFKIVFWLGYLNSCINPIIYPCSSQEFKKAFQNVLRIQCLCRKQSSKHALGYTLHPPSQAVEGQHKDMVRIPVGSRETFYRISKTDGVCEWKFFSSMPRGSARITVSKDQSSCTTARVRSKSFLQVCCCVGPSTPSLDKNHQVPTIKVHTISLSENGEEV

[3] = target: T3, HTR3A (5-HT3A) (Homo sapiens, UniProt P46098); test: cell-based
T3 sequence (P46098 24-478): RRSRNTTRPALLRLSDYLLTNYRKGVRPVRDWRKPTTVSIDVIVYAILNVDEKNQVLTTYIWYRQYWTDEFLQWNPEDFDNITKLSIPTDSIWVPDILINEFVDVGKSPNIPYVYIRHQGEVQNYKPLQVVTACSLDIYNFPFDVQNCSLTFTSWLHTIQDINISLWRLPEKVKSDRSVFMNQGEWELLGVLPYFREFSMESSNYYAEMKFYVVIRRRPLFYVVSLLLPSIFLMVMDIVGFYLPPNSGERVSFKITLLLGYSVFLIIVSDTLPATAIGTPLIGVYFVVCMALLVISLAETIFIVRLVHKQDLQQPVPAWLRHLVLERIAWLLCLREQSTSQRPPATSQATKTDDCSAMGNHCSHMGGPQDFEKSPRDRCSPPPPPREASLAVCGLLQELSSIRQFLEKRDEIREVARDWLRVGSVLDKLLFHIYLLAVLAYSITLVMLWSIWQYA

[4] = target: T3, HTR3A (5-HT3A); test: cell-based; remark: listed apart in the source
[5] = target: T2, ADRA1A; test: cell-based; remark: listed apart in the source
[6] = target: T4, ADRA2A (Homo sapiens, UniProt P08913); test: cell-based
T4 sequence (P08913 1-465): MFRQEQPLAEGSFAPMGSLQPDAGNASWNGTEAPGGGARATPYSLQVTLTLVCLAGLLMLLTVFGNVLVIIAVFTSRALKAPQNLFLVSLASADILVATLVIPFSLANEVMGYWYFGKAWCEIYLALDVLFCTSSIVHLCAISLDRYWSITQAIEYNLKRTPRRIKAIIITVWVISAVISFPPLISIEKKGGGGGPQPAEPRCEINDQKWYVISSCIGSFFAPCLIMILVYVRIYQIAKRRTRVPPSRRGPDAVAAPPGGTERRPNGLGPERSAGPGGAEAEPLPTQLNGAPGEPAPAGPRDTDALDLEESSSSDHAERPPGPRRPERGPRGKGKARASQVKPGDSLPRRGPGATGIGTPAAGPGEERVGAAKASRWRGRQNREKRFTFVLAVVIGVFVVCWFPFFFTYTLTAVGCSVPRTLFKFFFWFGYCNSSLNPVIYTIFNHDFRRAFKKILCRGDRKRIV

[7] = target: T5, DRD2S (Homo sapiens, UniProt P14416); test: cell-based
[8] = target: HTR2A (Homo sapiens, UniProt P28223); test: cell-based
[9] = target: DRD1 (Homo sapiens, UniProt P21728); test: cell-based
[10] = target: T1, AVPR1A; test: cell-based; remark: listed apart in the source
[11] = target: NET (Homo sapiens, UniProt P23975); test: cell-based
[12] = target: T6, 5-HT1A receptor (Homo sapiens, UniProt P08908); assay type: cell-based; details: comparison of +5-HT1A with -5-HT1A cultures, 4 mM forskolin
T6 construct: host or cells: CHO-K1
T6 sequence (P08908 1-422): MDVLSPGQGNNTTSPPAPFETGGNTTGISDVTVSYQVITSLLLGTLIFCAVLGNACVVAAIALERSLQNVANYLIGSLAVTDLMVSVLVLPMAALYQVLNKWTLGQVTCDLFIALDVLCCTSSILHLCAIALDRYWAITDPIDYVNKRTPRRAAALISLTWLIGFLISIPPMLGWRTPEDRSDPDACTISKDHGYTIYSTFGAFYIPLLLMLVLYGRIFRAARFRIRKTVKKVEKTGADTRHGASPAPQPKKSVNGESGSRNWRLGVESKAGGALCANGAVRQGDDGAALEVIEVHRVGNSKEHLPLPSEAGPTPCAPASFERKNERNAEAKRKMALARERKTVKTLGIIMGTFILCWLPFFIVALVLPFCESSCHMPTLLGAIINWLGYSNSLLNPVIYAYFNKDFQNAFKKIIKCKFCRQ

[13] = target: T5, DRD2S; test: cell-based; remark: listed apart in the source
[14] = AVPR1A, GPCR, AGN (agonist), read-out: EC50
[15] = ADRA1A, GPCR, ANT (antagonist), read-out: IC50
[16] = HTR3A, ion channel, OP (opener), read-out: EC50
[17] = HTR3A, ion channel, BL (blocker), read-out: IC50
[18] = ADRA1A, GPCR, AGN (agonist), read-out: EC50
[19] = ADRA2A, GPCR, ANT (antagonist), read-out: IC50
[20] = DRD2S, GPCR, ANT (antagonist), read-out: IC50
[21] = HTR2A, GPCR, ANT (antagonist), read-out: IC50
[22] = DRD1, GPCR, AGN (agonist), read-out: EC50
[23] = AVPR1A, GPCR, ANT (antagonist), read-out: IC50
[24] = NET, transporter, BL (blocker), read-out: IC50
[25] = DRD2S, GPCR, AGN (agonist), read-out: EC50

NET, sequence (P23975 whole entry): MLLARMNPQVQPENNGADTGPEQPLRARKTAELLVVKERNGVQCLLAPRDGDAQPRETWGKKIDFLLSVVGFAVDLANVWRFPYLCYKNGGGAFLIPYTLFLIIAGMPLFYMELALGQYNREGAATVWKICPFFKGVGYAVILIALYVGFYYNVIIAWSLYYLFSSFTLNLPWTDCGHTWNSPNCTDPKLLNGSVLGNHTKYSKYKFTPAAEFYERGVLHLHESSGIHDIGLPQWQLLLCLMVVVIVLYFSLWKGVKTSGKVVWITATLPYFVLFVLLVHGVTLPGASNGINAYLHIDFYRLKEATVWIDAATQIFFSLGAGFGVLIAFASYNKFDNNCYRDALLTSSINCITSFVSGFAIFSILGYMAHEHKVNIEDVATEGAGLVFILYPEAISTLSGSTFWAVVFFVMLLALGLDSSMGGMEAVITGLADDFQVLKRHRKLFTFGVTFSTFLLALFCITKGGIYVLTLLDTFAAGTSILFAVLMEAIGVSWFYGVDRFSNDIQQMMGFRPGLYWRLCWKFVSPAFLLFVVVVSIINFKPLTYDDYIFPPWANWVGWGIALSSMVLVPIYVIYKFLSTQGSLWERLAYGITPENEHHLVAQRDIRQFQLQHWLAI
T1 sequence (P37288 whole entry): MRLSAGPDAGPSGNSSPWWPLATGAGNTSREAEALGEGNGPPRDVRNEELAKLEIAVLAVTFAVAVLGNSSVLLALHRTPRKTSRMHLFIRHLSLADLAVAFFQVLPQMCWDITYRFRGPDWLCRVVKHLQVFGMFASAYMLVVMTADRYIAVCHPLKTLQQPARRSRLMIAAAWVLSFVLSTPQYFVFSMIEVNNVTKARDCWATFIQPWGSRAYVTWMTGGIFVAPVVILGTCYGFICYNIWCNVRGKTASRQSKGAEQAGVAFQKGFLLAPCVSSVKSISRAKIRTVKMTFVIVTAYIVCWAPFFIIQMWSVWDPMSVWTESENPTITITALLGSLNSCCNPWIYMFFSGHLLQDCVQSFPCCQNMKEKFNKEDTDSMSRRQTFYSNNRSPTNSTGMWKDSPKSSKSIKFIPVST
HTR2A, sequence (P28223 whole entry): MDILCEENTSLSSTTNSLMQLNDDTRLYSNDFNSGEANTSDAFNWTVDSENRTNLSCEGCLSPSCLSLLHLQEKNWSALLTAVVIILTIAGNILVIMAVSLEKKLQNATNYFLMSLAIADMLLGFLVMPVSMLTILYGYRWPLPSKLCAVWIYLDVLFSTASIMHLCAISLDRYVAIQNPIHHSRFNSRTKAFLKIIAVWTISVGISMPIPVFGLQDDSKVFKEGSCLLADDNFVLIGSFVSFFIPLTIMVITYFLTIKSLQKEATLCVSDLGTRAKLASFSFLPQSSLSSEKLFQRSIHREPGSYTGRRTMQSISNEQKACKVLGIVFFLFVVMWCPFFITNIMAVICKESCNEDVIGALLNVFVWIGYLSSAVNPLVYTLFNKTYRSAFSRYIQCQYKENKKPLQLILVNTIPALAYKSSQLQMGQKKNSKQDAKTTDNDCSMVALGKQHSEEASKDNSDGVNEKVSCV
T5 sequence (P14416 1-414 isoform P14416-2): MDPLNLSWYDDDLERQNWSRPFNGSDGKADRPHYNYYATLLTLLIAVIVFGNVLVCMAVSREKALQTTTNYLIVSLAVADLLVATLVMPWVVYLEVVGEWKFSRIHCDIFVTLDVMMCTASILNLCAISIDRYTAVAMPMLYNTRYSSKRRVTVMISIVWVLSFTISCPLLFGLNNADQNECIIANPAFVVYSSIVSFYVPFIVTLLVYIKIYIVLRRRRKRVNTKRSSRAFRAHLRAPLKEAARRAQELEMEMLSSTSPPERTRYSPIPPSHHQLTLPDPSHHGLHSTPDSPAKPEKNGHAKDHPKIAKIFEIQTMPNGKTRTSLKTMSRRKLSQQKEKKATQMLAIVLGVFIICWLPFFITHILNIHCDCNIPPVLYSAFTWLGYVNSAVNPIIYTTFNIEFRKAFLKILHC
DRD1, sequence (P21728 whole entry): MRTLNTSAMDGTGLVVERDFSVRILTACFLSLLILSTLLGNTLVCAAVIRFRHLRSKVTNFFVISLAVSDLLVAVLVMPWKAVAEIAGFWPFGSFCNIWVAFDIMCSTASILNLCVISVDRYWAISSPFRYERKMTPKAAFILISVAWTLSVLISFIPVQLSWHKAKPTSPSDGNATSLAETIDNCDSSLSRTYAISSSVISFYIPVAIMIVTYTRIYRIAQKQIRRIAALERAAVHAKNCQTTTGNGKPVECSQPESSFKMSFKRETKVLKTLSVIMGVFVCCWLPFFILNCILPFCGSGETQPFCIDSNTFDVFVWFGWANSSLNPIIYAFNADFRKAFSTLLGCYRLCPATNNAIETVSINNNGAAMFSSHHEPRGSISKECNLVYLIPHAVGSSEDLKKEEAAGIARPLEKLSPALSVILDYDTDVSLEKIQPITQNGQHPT

CCCCC(=O)OCOc1cccc2[nH]cc(CCN(C)C)c12 [D(III)]
EC50 [1, 14]: > 100 µM | IC50 [2, 15]: 3.86 µM | EC50 [3, 16]: > 100 µM | IC50 [4, 17]: 32.4 µM | EC50 [5, 18]: > 100 µM | IC50 [6, 19]: > 100 µM | IC50 [7, 20]: > 100 µM | IC50 [8, 21]: 0.587 µM | EC50 [9, 22]: > 100 µM | IC50 [10, 23]: > 100 µM | IC50 [11, 24]: > 100 µM | 5-HT1A receptor modulation [12]: suggests no receptor modulation | EC50 [13, 25]: 17.8 µM

CN(C)Cc1c[nH]c2cccc(O[Si](C)(C)C(C)(C)C)c12 [A(IV)]
EC50 [1, 14]: > 100 µM | IC50 [2, 15]: 18.5 µM | EC50 [3, 16]: > 100 µM | IC50 [4, 17]: 0.83 µM | EC50 [5, 18]: > 100 µM | IC50 [6, 19]: 16 µM | IC50 [7, 20]: > 100 µM | IC50 [8, 21]: 0.851 µM | EC50 [9, 22]: > 100 µM | IC50 [10, 23]: 42.3 µM | IC50 [11, 24]: > 100 µM | 5-HT1A receptor modulation [12]: reveals receptor modulation | EC50 [13, 25]: 12.7 µM

CC(C)OC(=O)OCOc1cccc2c1c(CCN(C)C)cn2COC(=O)OC(C)C [D(XIII)]
EC50 [1, 14]: > 100 µM | IC50 [2, 15]: > 100 µM | EC50 [3, 16]: > 100 µM | IC50 [4, 17]: 16.7 µM | EC50 [5, 18]: > 100 µM | IC50 [6, 19]: > 100 µM | IC50 [7, 20]: > 100 µM | IC50 [8, 21]: 16.3 µM | EC50 [9, 22]: > 100 µM | IC50 [10, 23]: > 100 µM | IC50 [11, 24]: > 100 µM | 5-HT1A receptor modulation [12]: suggests receptor modulation at higher ligand concentrations | EC50 [13, 25]: 77 µM

CN(C)CCc1c[nH]c2cccc(OP(=O)(Oc3ccccc3)Oc3ccccc3)c12 [F(I)]
EC50 [1]: > 100 µM | IC50 [2]: 14.8 µM | EC50 [3]: > 100 µM | IC50 [4]: 2.52 µM | EC50 [5]: > 100 µM | IC50 [6]: 40.3 µM | IC50 [7]: > 100 µM | IC50 [8]: 0.168 µM | EC50 [9]: > 100 µM | IC50 [10]: > 100 µM | IC50 [11]: 41.8 µM | 5-HT1A receptor modulation [12]: reveals receptor modulation | EC50 [13]: 3.06 µM

CC(C)[Si](Oc1cccc2[nH]cc(CN(C)C)c12)(C(C)C)C(C)C [A(V)]
EC50 [1, 14]: > 100 µM | IC50 [2, 15]: 19.6 µM | EC50 [3, 16]: > 100 µM | IC50 [4, 17]: 1.43 µM | EC50 [5, 18]: > 100 µM | IC50 [6, 19]: > 100 µM | IC50 [7, 20]: > 100 µM | IC50 [8, 21]: 6.95 µM | EC50 [9, 22]: > 100 µM | IC50 [10, 23]: 17 µM | IC50 [11, 24]: 18.9 µM | 5-HT1A receptor modulation [12]: reveals receptor modulation | EC50 [13, 25]: > 100 µM

CN(C)CCc1c[nH]c2cccc(OC(=O)OCC3CC3)c12 [B(III)]
EC50 [1, 14]: > 100 µM | IC50 [2, 15]: 12.6 µM | EC50 [3, 16]: > 100 µM | IC50 [4, 17]: 47.4 µM | EC50 [5, 18]: > 100 µM | IC50 [6, 19]: > 100 µM | IC50 [7, 20]: > 100 µM | IC50 [8, 21]: 0.296 µM | EC50 [9, 22]: > 100 µM | IC50 [10, 23]: > 100 µM | IC50 [11, 24]: > 100 µM | 5-HT1A receptor modulation [12]: indicates receptor modulation | EC50 [13, 25]: 3.81 µM

CN(C)CCc1c[nH]c2cccc(OC(=O)OCc3ccccc3)c12 [B(II)]
EC50 [1]: > 100 µM | IC50 [2]: 3.66 µM | EC50 [3]: > 100 µM | IC50 [4]: 2.34 µM | EC50 [5]: > 100 µM | IC50 [6]: 9.08 µM | IC50 [7]: 12.4 µM | IC50 [8, 21]: 0.908 µM | EC50 [9]: > 100 µM | IC50 [10]: 42.6 µM | IC50 [11]: 26.5 µM | 5-HT1A receptor modulation [12]: suggests no receptor modulation | EC50 [13]: > 100 µM

CCCC(=O)OCOc1cccc2[nH]cc(CCN(C)C)c12 [D(IV)]
EC50 [1, 14]: > 100 µM | IC50 [2, 15]: 12.9 µM | EC50 [3, 16]: > 100 µM | IC50 [4, 17]: > 100 µM | EC50 [5, 18]: > 100 µM | IC50 [6, 19]: > 100 µM | IC50 [7, 20]: > 100 µM | IC50 [8, 21]: 1.27 µM | EC50 [9, 22]: > 100 µM | IC50 [10, 23]: > 100 µM | IC50 [11, 24]: > 100 µM | EC50 [13, 25]: 27.4 µM
